This experiment addresses T1, Wee1 (Homo sapiens, UniProt P30291).
T1 construct: endogenous in cells; host or cells: HeLa
Description: Cell assay for Wee1 inhibitory activity (cell-based ELISA, phospho-cdc2(Tyr15)). Conditions: Hela cells synchronized using aphidicolin; phosphorylation level of cdc2 (Tyr15) by sandwich ELISA. An excerpt: Cell Assay for Wee1 Inhibitory Activity
Wee1 inhibitory activity can be measured using a cell-based ELISA assay. Hela cells are synchronized using aphidicolin, which blocks the entry of cells into S-phase. Cells in G2-M transition phase are then obtained by releasing the cells from aphidicolin treatment for approximately 7-9 hrs. The phosphorylation level of the Wee1 target cdc2 may then be measured by sandwich ELISA using an anti-cdc2 antibody and an anti-phospho-cdc2(Tyr15) antibody. This cell assay was used to calculate a pIC50 for the compounds described in Examples 2, 3, and 19.
T1 sequence (P30291 whole entry): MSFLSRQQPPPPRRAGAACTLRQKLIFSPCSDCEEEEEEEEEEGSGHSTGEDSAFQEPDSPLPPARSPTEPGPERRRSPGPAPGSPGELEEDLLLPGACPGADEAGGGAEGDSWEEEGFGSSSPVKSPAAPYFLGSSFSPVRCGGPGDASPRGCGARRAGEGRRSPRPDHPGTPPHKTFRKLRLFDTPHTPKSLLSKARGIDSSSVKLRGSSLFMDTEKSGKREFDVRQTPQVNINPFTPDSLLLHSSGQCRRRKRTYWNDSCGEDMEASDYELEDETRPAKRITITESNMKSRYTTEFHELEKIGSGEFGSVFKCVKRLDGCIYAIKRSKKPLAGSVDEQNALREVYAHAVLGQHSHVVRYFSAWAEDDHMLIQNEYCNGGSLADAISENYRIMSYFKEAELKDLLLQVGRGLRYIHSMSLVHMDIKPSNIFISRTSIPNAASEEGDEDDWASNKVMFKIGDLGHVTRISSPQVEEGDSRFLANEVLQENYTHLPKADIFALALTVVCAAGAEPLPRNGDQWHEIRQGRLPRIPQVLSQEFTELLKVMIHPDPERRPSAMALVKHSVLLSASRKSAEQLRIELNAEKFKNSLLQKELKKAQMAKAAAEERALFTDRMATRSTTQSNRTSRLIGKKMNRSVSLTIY
In the case of `CCN(CC)CCOc1ccc(Nc2ncc(Br)c(Nc3ccccc3OC)n2)cc1` [Example 2, 5-bromo-N^2-(4-{[2-(diethylamino)ethyl]oxy}phenyl)-N^4-[2-(methyloxy)phenyl]-2,4-pyrimidinediamine], the IC50 was not above 10 µM.

The compound `CCC(C)NC(=O)c1ccccc1Nc1nc(Nc2cccc(CCN3CCOCC3)c2)ncc1Br` (stereo not drawn) [Example 3, 2-{[5-bromo-2-({3-[2-(4-morpholinyl)ethyl]phenyl}amino)-4-pyrimidinyl]amino}-N-(1-methylpropyl)benzamide] had an IC50 not above 10 µM.

Compound `COc1ccccc1Nc1nc(Nc2cccc(OCCN(C)C)c2)ncc1Br` [Example 19, 5-bromo-N^2-(3-{[2-(dimethylamino)ethyl]oxy}phenyl)-N^4-[2-(methyloxy)phenyl]-2,4-pyrimidinediamine] showed an IC50 not above 10 µM.

These data come from US20100105674A1, “Chemical Compounds” (priority 2007, published 2010).
